{
  "source": "patent US6956113B2",
  "about": "(priority 2000, dated 2005)",
  "system": "bioluminescent Salmonella tester strains (his- cells)",
  "data": [
    {"molecule": "[N-]=[N+]=[N-]", "note": "[NaN, sodium azide]", "values": [
      {"measurement": "bioluminescent revertants after independent exposure (mutagenicity)", "value": "detection of bioluminescent revertants"}
    ]}
  ]
}
